Experimental data reported in PubChem BioAssay AID248 (DTP/NCI, 2004).
Values joined by “and” are separate entries in the source; they are usually repeats but may differ in a detail not shown here. Identical values can stand only once. Toxic doses and inconclusive results are not listed. Bridge positions count the residues as written; N and C are the ends. Peptide text beside a SMILES is read from it. I, II: the chains in the order shown.

Tested on: L1210 leukemia ip in BDF1 mice, survival T/C
Assay: NCI In Vivo Anticancer Drug Screen. Data for tumor model L1210 Leukemia (intraperitoneal) in B6D2F1 (BDF1) mice
Conditions: endpoint: mean survival time, higher = longer survival
How it was run: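 Mice bearing the transplanted tumor received compound or vehicle. Survival of the treated group was divided by that of the vehicle-treated control group to give the ratio.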

[1] = dose: 100.0 mg/kg/injection, schedule: Q01DX001 (ip), vehicle: saline
[2] = dose: 200.0 mg/kg/injection, schedule: Q01DX001 (ip), vehicle: saline
[3] = dose: 400.0 mg/kg/injection, schedule: Q01DX001 (ip), vehicle: saline
[4] = dose: 100.0 mg/kg/injection, schedule: Q01DX001 (ip), vehicle: carboxymethylcellulose (CMC)
[5] = dose: 200.0 mg/kg/injection, schedule: Q01DX001 (ip), vehicle: carboxymethylcellulose (CMC)
[6] = dose: 400.0 mg/kg/injection, schedule: Q01DX001 (ip), vehicle: carboxymethylcellulose (CMC)
[7] = dose: 100.0 mg/kg/injection, schedule: Q01DX009 (ip), vehicle: Klucel (hydroxypropylcellulose) (HPC)
[8] = dose: 100.0 mg/kg/injection, schedule: Q04DX002 (ip), vehicle: Klucel (hydroxypropylcellulose) (HPC)
[9] = dose: 200.0 mg/kg/injection, schedule: Q01DX009 (ip), vehicle: Klucel (hydroxypropylcellulose) (HPC)
[10] = dose: 200.0 mg/kg/injection, schedule: Q04DX002 (ip), vehicle: Klucel (hydroxypropylcellulose) (HPC)
[11] = dose: 400.0 mg/kg/injection, schedule: Q01DX009 (ip), vehicle: Klucel (hydroxypropylcellulose) (HPC)
[12] = dose: 400.0 mg/kg/injection, schedule: Q04DX002 (ip), vehicle: Klucel (hydroxypropylcellulose) (HPC)
[13] = dose: 100.0 mg/kg/injection, schedule: Q04DX003 (ip), vehicle: Klucel (hydroxypropylcellulose) (HPC)
[14] = dose: 200.0 mg/kg/injection, schedule: Q04DX003 (ip), vehicle: Klucel (hydroxypropylcellulose) (HPC)
[15] = dose: 400.0 mg/kg/injection, schedule: Q04DX003 (ip), vehicle: Klucel (hydroxypropylcellulose) (HPC)

COC(=O)C12C3C=CC(O3)C1(C(=O)OC)C1C=CC2O1 (stereo not given)
T/C (dose: 87.5 mg/kg/injection, schedule: Q01DX009 (ip), vehicle: Klucel (hydroxypropylcellulose) (HPC)): 100 % of control
T/C (dose: 175.0 mg/kg/injection, schedule: Q01DX009 (ip), vehicle: Klucel (hydroxypropylcellulose) (HPC)): 97 % of control
T/C (dose: 350.0 mg/kg/injection, schedule: Q01DX009 (ip), vehicle: Klucel (hydroxypropylcellulose) (HPC)): 101 % of control

CC(C(=O)c1ccccc1)S(=O)(=O)O (stereo not given)
T/C (dose: 100.0 mg/kg/injection, schedule: Q04DX003 (ip), vehicle: saline): 102 % of control
T/C (dose: 200.0 mg/kg/injection, schedule: Q04DX003 (ip), vehicle: saline): 94 % of control
T/C (dose: 400.0 mg/kg/injection, schedule: Q04DX003 (ip), vehicle: saline): 96 % of control

Brc1ccc(SSc2ccc(Br)cc2)cc1
T/C [1]: 110 % of control
T/C [2]: 95 % of control
T/C [3]: 95 % of control

CC1C(=O)OC2C1CCC1(C)C=CC(=O)C(C)C21 (stereo not given)
T/C (dose: 75.0 mg/kg/injection, schedule: Q01DX001 (ip), vehicle: saline): 102 % of control
T/C (dose: 150.0 mg/kg/injection, schedule: Q01DX001 (ip), vehicle: saline): 103 % of control

O/N=C1\c2ccccc2-c2cccc(I)c21
T/C [4]: 92 % of control
T/C [5]: 92 % of control
T/C [6]: 94 % of control

CN(CCC#N)c1ccc(/C=C(\C#N)C(N)=O)cc1
T/C (dose: 100.0 mg/kg/injection, schedule: Q01DX001 (ip), vehicle: saline with Tween-80): 102 % of control
T/C (dose: 100.0 mg/kg/injection, schedule: Q04DX003 (ip), vehicle: saline with Tween-80): 92 % of control and 93 % of control
T/C (dose: 200.0 mg/kg/injection, schedule: Q01DX001 (ip), vehicle: saline with Tween-80): 102 % of control
T/C (dose: 200.0 mg/kg/injection, schedule: Q04DX003 (ip), vehicle: saline with Tween-80): 100 % of control and 90 % of control
T/C (dose: 400.0 mg/kg/injection, schedule: Q01DX001 (ip), vehicle: saline with Tween-80): 89 % of control
T/C (dose: 400.0 mg/kg/injection, schedule: Q04DX003 (ip), vehicle: saline with Tween-80): 98 % of control and 90 % of control

O=c1[nH]c2ccccc2c(=O)n1CCCN1CCN(c2cccc(Cl)c2)CC1
T/C [7]: 108 % of control
T/C [8]: 111 % of control
T/C [9]: 108 % of control
T/C [10]: 114 % of control
T/C [11]: 108 % of control
T/C [12]: 104 % of control

CC(=O)Nc1cc2c(cc1Cl)-c1ccc(F)cc1C2=O
T/C [13]: 97 % of control
T/C [14]: 103 % of control
T/C [15]: 105 % of control

CCCC(CN(C)C)C(=O)c1ccccc1 (stereo not given)
T/C (dose: 25.0 mg/kg/injection, schedule: Q01DX009 (ip), vehicle: saline with Tween-80): 93 % of control
T/C (dose: 25.0 mg/kg/injection, schedule: Q04DX002 (ip), vehicle: saline with Tween-80): 100 % of control
T/C (dose: 50.0 mg/kg/injection, schedule: Q01DX009 (ip), vehicle: saline with Tween-80): 89 % of control
T/C (dose: 50.0 mg/kg/injection, schedule: Q04DX002 (ip), vehicle: saline with Tween-80): 93 % of control
T/C (dose: 100.0 mg/kg/injection, schedule: Q01DX009 (ip), vehicle: saline with Tween-80): 96 % of control
T/C (dose: 100.0 mg/kg/injection, schedule: Q04DX002 (ip), vehicle: saline with Tween-80): 93 % of control

Cc1ccc(/C=C2\NC(=O)NC2=O)cc1
T/C (dose: 25.0 mg/kg/injection, schedule: Q01DX009 (ip), vehicle: water): 94 % of control
T/C (dose: 50.0 mg/kg/injection, schedule: Q01DX009 (ip), vehicle: water): 93 % of control
T/C (dose: 100.0 mg/kg/injection, schedule: Q01DX009 (ip), vehicle: water): 100 % of control
T/C (dose: 200.0 mg/kg/injection, schedule: Q01DX009 (ip), vehicle: water): 94 % of control
T/C (dose: 400.0 mg/kg/injection, schedule: Q01DX009 (ip), vehicle: water): 101 % of control

CN(C)CCC(O)(c1ccccc1)c1ccccc1Cl (stereo not given)
T/C [4]: 90 % of control
T/C [5]: 97 % of control
T/C [6]: 94 % of control

CC(C)(C)C1COP(=O)(C(C)(C)C)OC1 (stereo not given)
T/C (dose: 12.5 mg/kg/injection, schedule: Q04DX003 (ip), vehicle: Klucel (hydroxypropylcellulose) (HPC)): 94 % of control
T/C (dose: 25.0 mg/kg/injection, schedule: Q04DX003 (ip), vehicle: Klucel (hydroxypropylcellulose) (HPC)): 96 % of control

CCOC(=O)C(Cc1ccc(O)cc1)NC(=O)C(N)CSSCC(N)C(=O)NC(Cc1ccc(O)cc1)C(=O)OCC (stereo not drawn) (I: H-Cys-Tyr-OEt / II: H-Cys-Tyr-OEt; disulfide I:1-II:1; configuration not given here)
T/C [1]: 97 % of control
T/C [2]: 105 % of control
T/C [3]: 94 % of control

CS(=O)(=O)Cc1ccc([N+](=O)[O-])cc1
T/C [13]: 103 % of control
T/C [14]: 109 % of control
T/C [15]: 103 % of control

CC(=O)CC(=O)N1CCCCC1C (stereo not given)
T/C [13]: 104 % of control
T/C [14]: 101 % of control
T/C [15]: 97 % of control

CC1(CO)COC(c2ccccc2)=N1 (stereo not given)
T/C (dose: 100.0 mg/kg/injection, schedule: Q01DX009 (ip), vehicle: other): 109 % of control
T/C (dose: 200.0 mg/kg/injection, schedule: Q01DX009 (ip), vehicle: other): 103 % of control
T/C (dose: 400.0 mg/kg/injection, schedule: Q01DX009 (ip), vehicle: other): 109 % of control

O=[N+]([O-])c1ccc(C=Nc2cccc3ccccc23)s1
T/C [13]: 95 % of control
T/C [14]: 95 % of control
T/C [15]: 92 % of control

COc1ccccc1-n1c(=O)c(N=Nc2ccc(Cl)cc2)c(O)n(-c2ccccc2C)c1=S
T/C (dose: 75.0 mg/kg/injection, schedule: Q04DX003 (ip), vehicle: Klucel (hydroxypropylcellulose) (HPC)): 94 % of control
T/C (dose: 150.0 mg/kg/injection, schedule: Q04DX003 (ip), vehicle: Klucel (hydroxypropylcellulose) (HPC)): 107 % of control
T/C (dose: 300.0 mg/kg/injection, schedule: Q04DX003 (ip), vehicle: Klucel (hydroxypropylcellulose) (HPC)): 104 % of control

S=C(Nc1ccc(C2=NCCN2)cc1)c1ccc(C(=S)Nc2ccc(C3=NCCN3)cc2)cc1
T/C (dose: 1.0 mg/kg/injection, schedule: Q01DX Z (ip), vehicle: saline): 108 % of control
T/C (dose: 2.0 mg/kg/injection, schedule: Q01DX Z (ip), vehicle: saline): 108 % of control
T/C (dose: 4.0 mg/kg/injection, schedule: Q01DX Z (ip), vehicle: saline): 124 % of control
T/C (dose: 15.0 mg/kg/injection, schedule: Q01DX Z (ip), vehicle: carboxymethylcellulose (CMC)): 219 % of control
T/C (dose: 30.0 mg/kg/injection, schedule: Q01DX Z (ip), vehicle: carboxymethylcellulose (CMC)): 182 % of control
T/C (dose: 30.0 mg/kg/injection, schedule: Q01DX Z (oral), vehicle: saline): 103 % of control
T/C (dose: 60.0 mg/kg/injection, schedule: Q01DX Z (ip), vehicle: carboxymethylcellulose (CMC)): 171 % of control
T/C (dose: 60.0 mg/kg/injection, schedule: Q01DX Z (oral), vehicle: saline): 101 % of control
T/C (dose: 120.0 mg/kg/injection, schedule: Q01DX Z (oral), vehicle: saline): 98 % of control
T/C (dose: 240.0 mg/kg/injection, schedule: Q01DX Z (oral), vehicle: saline): 101 % of control
T/C (dose: 480.0 mg/kg/injection, schedule: Q01DX Z (oral), vehicle: saline): 101 % of control
T/C (dose: 960.0 mg/kg/injection, schedule: Q01DX Z (oral), vehicle: saline): 101 % of control

Cc1cc(Cl)cc(Cl)c1OCC(=O)O
T/C [8]: 98 % of control
T/C [10]: 95 % of control
T/C [12]: 95 % of control

CCCCCCCCCCCCNC(=O)Nc1ccc(CC)cc1
T/C [7]: 87 % of control
T/C [13]: 97 % of control
T/C [9]: 94 % of control
T/C [14]: 96 % of control
T/C [11]: 93 % of control
T/C [15]: 101 % of control

O=[N+]([O-])c1cc(Br)c(N2CCCC2)cc1N1CCCC1
T/C [7]: 106 % of control
T/C [13]: 104 % of control
T/C [9]: 106 % of control
T/C [14]: 93 % of control
T/C [11]: 98 % of control
T/C [15]: 88 % of control
